Earlier results on one substance are cited in patent US20210169840A1, “COMPOSITION AND METHOD OF AN IRON SUPPLEMENT” (priority 2019, published 2021).

For the data set the following is noted: in vivo.

As for carbonyl iron, the absorption is on record as approximately 70%.
